Measured values reported in ChEMBL document CHEMBL1201862, “PubChem BioAssay data set” (2004).
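Following 48 hours of exposure in 96-well plates, responses at five concentrations were used to interpolate endpoints linearly. Here, GI50 denotes the concentration required for 50% inhibition of growth.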 Active and inactive are the calls of the source. Cut-off read from the data, not from the text of the source: active = GI50 up to about 1.1 µM and inactive = higher.

Assays:
Experiment in all cases: NCI-60 cell line screen, 48 h
COLO 205 = system: COLO 205
DLD-1 = system: DLD-1
DMS-114 = system: DMS-114
HCT-116 = system: HCT-116
KM12 = system: KM12
MOLT-4 = system: MOLT-4
Malme-3M = system: Malme-3M
NCI-H226 = system: NCI-H226
NCI-H460 = system: NCI-H460
NCI-H522 = system: NCI-H522
OVCAR-5 = system: OVCAR-5
SF-539 = system: SF-539
SK-MEL-2 = system: SK-MEL-2
SK-MEL-5 = system: SK-MEL-5
SN12C = system: SN12C
SW-620 = system: SW-620
U-251 = system: U-251
UACC-62 = system: UACC-62
UO-31 = system: UO-31
ACHN = system: ACHN

Row | SMILES | GI50 (COLO 205) | GI50 (DLD-1) | GI50 (DMS-114) | GI50 (HCT-116) | GI50 (KM12) | GI50 (MOLT-4) | GI50 (Malme-3M) | GI50 (NCI-H226) | GI50 (NCI-H460) | GI50 (NCI-H522) | GI50 (OVCAR-5) | GI50 (SF-539) | GI50 (SK-MEL-2) | GI50 (SK-MEL-5) | GI50 (SN12C) | GI50 (SW-620) | GI50 (U-251) | GI50 (UACC-62) | GI50 (UO-31) | GI50 (ACHN)
1 | CC(C)=CCC/C(C)=C/CCC1(C)C=Cc2c(c3ccccc3oc2=O)O1 (stereo unspecified) | 19.1 µM (inactive) | 14.7 µM (inactive) | 15.8 µM (inactive) | 14.8 µM (inactive) | 18.5 µM (inactive) | 20.6 µM (inactive) | 27.6 µM (inactive) | 16.1 µM (inactive) | 15.8 µM (inactive) | 14.7 µM (inactive) | 18.6 µM (inactive) | 16.1 µM (inactive) | 17.4 µM (inactive) | 14.7 µM (inactive) | 16.8 µM (inactive) | 19.4 µM (inactive) | 15.3 µM (inactive) | 10.2 µM (inactive) | 15.5 µM (inactive) | 
2 | CSc1cc(-c2cc3ccccc3o2)oc(=O)c1C#N | > 100 µM (inactive) | > 100 µM (inactive) | 7.43 µM (inactive) | > 100 µM (inactive) | > 100 µM (inactive) | > 100 µM (inactive) | 3.6 µM (inactive) | 0.165 µM (active) | > 100 µM (inactive) |  | 12.2 µM (inactive) | > 100 µM (inactive) | > 100 µM (inactive) | > 100 µM (inactive) | > 100 µM (inactive) | > 100 µM (inactive) | > 100 µM (inactive) |  | 37.5 µM (inactive) | > 100 µM (inactive)
3 | O=C1Sc2ccccc2/C1=N/Nc1ccccc1[N+](=O)[O-] | > 100 µM (inactive) |  |  | > 100 µM (inactive) | > 100 µM (inactive) | > 100 µM (inactive) | 94.8 µM (inactive) | > 100 µM (inactive) | > 100 µM (inactive) | > 100 µM (inactive) | > 100 µM (inactive) | 69.5 µM (inactive) | > 100 µM (inactive) | 65.2 µM (inactive) |  | > 100 µM (inactive) | > 100 µM (inactive) | > 100 µM (inactive) | > 100 µM (inactive) | 93.1 µM (inactive)
4 | COc1cc2c(cc1OC)-c1cc3ccccc3c[n+]1CC2 | 37.6 µM (inactive) |  |  | > 100 µM (inactive) | 65.3 µM (inactive) | > 100 µM (inactive) | 25.4 µM (inactive) | > 100 µM (inactive) | > 100 µM (inactive) | 18.8 µM (inactive) | > 100 µM (inactive) | > 100 µM (inactive) | > 100 µM (inactive) | 22.9 µM (inactive) | 39.6 µM (inactive) | > 100 µM (inactive) | 33.6 µM (inactive) | > 100 µM (inactive) | > 100 µM (inactive) | > 100 µM (inactive)
5 | C=C(C)C(=O)O[C@H]1CC2=C[C@@H](C[C@@]3(C)O[C@@H]3[C@H]3OC(=O)C(=C)[C@@H]31)OC2=O [ELEPHANTOPIN] | 0.885 µM (active) | 0.897 µM (active) | 4.47 µM (inactive) | 1.16 µM (inactive) | 3.31 µM (inactive) | 0.412 µM (active) | 2.12 µM (inactive) | 10.2 µM (inactive) | 4.86 µM (inactive) | 0.593 µM (active) | 6.55 µM (inactive) | 3.57 µM (inactive) | 4.34 µM (inactive) | 4.29 µM (inactive) | 4.03 µM (inactive) | 0.695 µM (active) | 6.49 µM (inactive) | 3.5 µM (inactive) | 6.07 µM (inactive) | 
6 | O=C1CNc2cc(N3CCCCC3)ccc2N1 |  |  |  |  | 49.4 µM (inactive) | > 100 µM (inactive) | > 100 µM (inactive) | 16.3 µM (inactive) | > 100 µM (inactive) | > 100 µM (inactive) | > 100 µM (inactive) | > 100 µM (inactive) | > 100 µM (inactive) | 43.8 µM (inactive) | > 100 µM (inactive) | > 100 µM (inactive) | > 100 µM (inactive) | 25.4 µM (inactive) | > 100 µM (inactive) | > 100 µM (inactive)
7 | O=C(Nc1cccc(O)c1)C(=O)C(C(=O)c1ccccc1F)C1OC(=O)c2ccccc21 (stereo unspecified) | 23.2 µM (inactive) | 34.2 µM (inactive) | 13.8 µM (inactive) | 18 µM (inactive) | 18.4 µM (inactive) | 28.6 µM (inactive) |  | 17.2 µM (inactive) | 29.4 µM (inactive) | 17.3 µM (inactive) | 57 µM (inactive) | 15.2 µM (inactive) | 20.9 µM (inactive) | 36.1 µM (inactive) | 19.4 µM (inactive) | 35.7 µM (inactive) | 11.6 µM (inactive) | 16.9 µM (inactive) | 32.1 µM (inactive) | 37.7 µM (inactive)
8 | c1ccc(CCn2cncn2)cc1 | > 100 µM (inactive) | > 100 µM (inactive) | > 100 µM (inactive) | > 100 µM (inactive) | > 100 µM (inactive) | > 100 µM (inactive) | > 100 µM (inactive) | > 100 µM (inactive) | > 100 µM (inactive) | > 100 µM (inactive) | > 100 µM (inactive) | > 100 µM (inactive) |  | > 100 µM (inactive) | > 100 µM (inactive) | > 100 µM (inactive) | > 100 µM (inactive) | > 100 µM (inactive) | > 100 µM (inactive) | > 100 µM (inactive)
9 | Cc1cn(C2CC(O)C(CO)C2C)c(=O)[nH]c1=O (stereo unspecified) | > 100 µM (inactive) | > 100 µM (inactive) | > 100 µM (inactive) | > 100 µM (inactive) | > 100 µM (inactive) | > 100 µM (inactive) | > 100 µM (inactive) | > 100 µM (inactive) | > 100 µM (inactive) | > 100 µM (inactive) | > 100 µM (inactive) | > 100 µM (inactive) | > 100 µM (inactive) |  | > 100 µM (inactive) | > 100 µM (inactive) | > 100 µM (inactive) | > 100 µM (inactive) | > 100 µM (inactive) | > 100 µM (inactive)
10 | CCCCCCCCCCCCCCCCCc1cc(Cl)nc(Cl)n1 |  |  |  |  | > 100 µM (inactive) | > 100 µM (inactive) | > 100 µM (inactive) | > 100 µM (inactive) | > 100 µM (inactive) |  | > 100 µM (inactive) | > 100 µM (inactive) | > 100 µM (inactive) | > 100 µM (inactive) | > 100 µM (inactive) | > 100 µM (inactive) | > 100 µM (inactive) | > 100 µM (inactive) | > 100 µM (inactive) | > 100 µM (inactive)
11 | CNC1=C(C)C(=O)C2=C(C1=O)C(COC(N)=O)C1(OC)C3NC3CN21 (stereo unspecified) | 0.187 µM (active) |  |  | 0.209 µM (active) | 0.413 µM (active) | 3.68 µM (inactive) | 0.571 µM (active) | 0.543 µM (active) | < 0.01 µM (active) | 0.427 µM (active) | 4.91 µM (inactive) | 0.183 µM (active) | 1.15 µM (inactive) | 0.0445 µM (active) |  | 0.385 µM (active) | 0.883 µM (active) | 0.221 µM (active) | 2.19 µM (inactive) | 0.16 µM (active)
